Test results taken from PMC5678437, “A new antagonist for CCR4 attenuates allergic lung inflammation in a mouse model of asthma” (Scientific Reports, 2017).
Read-outs that look alike come from different tables or passages of the source.

What was measured:
[1] = test system: OVA-induced asthmatic mice; experiment: Lung histology (H&E) inflammation score in OVA-induced asthmatic mice; format: in vivo, BALB/c mice; conditions: 5 mg inhaled aerosol; vs OVA mice treated with vehicle
Protocol: (§1) Male BALB/c 6 week old mice were purchased from the Experimental Animal Center of Zhejiang University. All mice were raised in a specific pathogen-free animal facility. All animal experiments were carried out according to the guidelines for the care and use of laboratory animals and were approved by the ethics committee of Zhejiang University and Peking University, China.
(§2) Mice were sensitized and challenged with chicken egg OVA (sigma-Aldrich, St Louis, MO, USA) as described in details previously. Briefly, after sensitized by intraperitoneal injection of 100 μl (80 μg) OVA in 100 μl alum (Pierce, Rockford, IL, USA) on days 0 and 14, mice were exposure to 1% OVA aerosols for 40 min on days 24–26. Control mice were injected intraperitoneally with saline and exposed to saline aerosols.
(§3) Compound 8a was dissolved in saline with DMSO (0.5%). Half an hour before each OVA challenge, the groups of mice treated with various doses of compound 8a (0.2, 1, 5 mg) inhaled aerosolized compound 8a for 45 min on days 24–26. Compound 8a aerosols were produced by using a Plexiglas chamber and ultrasonic nebulizer. […]
(§4) After sacrificed, the lungs were fixed in formalin overnight. […] Inflammation was scored according to published guidelines. And PAS-stained goblet cells in airway epithelium were quantified as described previously.

[2] = test system: OVA-induced asthmatic mice; experiment: Airway mucus production (PAS staining) in OVA-induced asthmatic mice; format: in vivo, BALB/c mice; conditions: compound 8a 0.2, 1, 5 mg; budesonide 5 mg; vs vehicle treated group
Protocol: as §1, §2, §3, §4

[3] = test system: OVA-induced asthmatic mice; experiment: Airway hyperresponsiveness to aerosolized methacholine in OVA-induced asthmatic mice; format: in vivo, BALB/c mice; conditions: 5 mg inhaled aerosol, days 24-26; 24 h after final OVA challenge
Protocol: as §1, §2
(§5) Compound 8a was dissolved in saline with DMSO (0.5%). Half an hour before each OVA challenge, the groups of mice treated with various doses of compound 8a (0.2, 1, 5 mg) inhaled aerosolized compound 8a for 45 min on days 24–26. Compound 8a aerosols were produced by using a Plexiglas chamber and ultrasonic nebulizer. While the budesonide (BUD) group were administered with 5 mg budesonide, and the vehicle group were treated with compound-dissolved vehicle. The Saline was treated as the control.
Twenty-four hours after the last challenge, mice were anesthetized and tracheotomized with a cannula, then ventilated at a fixed breathing rate. Once being stabilized, mice were challenged via the airways with saline or increasing concentrations of Mch (1, 2, 4, 8, 16 mg/ml) by nebulization. Airway resistance was measured by FinePointe Series RC Sites (Buxco Research System). Changes in airway resistance were calculated for each Mch concentration.

[4] = test system: IL-4; experiment: IL-4 in lung homogenate by ELISA in OVA-induced asthmatic mice; format: in vivo, BALB/c mice; conditions: 5 mg inhaled aerosol; after OVA challenge
Protocol: as §1, §2
Compound 8a was dissolved in saline with DMSO (0.5%). Half an hour before each OVA challenge, the groups of mice treated with various doses of compound 8a (0.2, 1, 5 mg) inhaled aerosolized compound 8a for 45 min on days 24–26. […]
Twenty-four hours after the last challenge, lungs were removed from control or asthmatic mice, and they were cut into pieces and homogenized in 500 μl PBS, centrifuged (2000 rpm, 10 min) and the supernatant collected. The concentration of IL-4 in lungs were determined by ELISA kit (Sensitivity: 2 pg/ml, R&D Systems, Minneap-olis, MN, USA) following the manufacturer’s protocol.

[5] = test system: OVA-induced asthmatic mice; experiment: BALF total cell and cell differential counts in OVA-induced asthmatic mice; format: in vivo, BALB/c mice
Protocol: as §1, §2, §5
Twenty-four hours after the last exposure, collection of BALF and cell count was performed as previously described. Briefly, lavage was performed by instilling 0.4 ml PBS into lungs and with drawn to collect the cells three times. Total BALF cells were counted. After be centrifuged, the remaining cells was spun onto glass slides, and stained with Wright–Giemsa stain. Differential counts were evaluated by counting 400 total cells.

[6] = target: T1, CCR4 (Homo sapiens, UniProt P51679); experiment: Radio ligand competition binding assay on CCR4 cell membrane extract; conditions: HEK293 CCR4 cell membrane extract, 4 °C, 24 h
T1 construct: expressed in transfected cells; cell membrane extract
T1 sequence (P51679 1-360): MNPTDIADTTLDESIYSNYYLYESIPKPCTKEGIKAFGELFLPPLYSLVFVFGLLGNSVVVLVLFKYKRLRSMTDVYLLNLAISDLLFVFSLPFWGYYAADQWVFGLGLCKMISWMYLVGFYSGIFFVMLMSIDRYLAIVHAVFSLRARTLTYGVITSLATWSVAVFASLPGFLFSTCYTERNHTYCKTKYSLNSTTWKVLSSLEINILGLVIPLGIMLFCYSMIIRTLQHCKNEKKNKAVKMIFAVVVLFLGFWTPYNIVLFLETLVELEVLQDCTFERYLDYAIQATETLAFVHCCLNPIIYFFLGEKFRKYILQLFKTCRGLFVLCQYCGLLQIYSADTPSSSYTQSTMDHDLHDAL
Protocol: A HEK293 cell line stably expressing CCR4-enhanced green fluorescent protein was established. CCL22, CCL17 and C27 were labeled with [^125I]. For competition binding assays, equivalent quantities of cell membrane extract and [^125I]-CCL22, [^125I]-CCL17 and [^125I]-C27 were incubated with varying quantities of unlabeled compound 8a, compound 6b and compound 22. All reactions were incubated at 4 °C for 24 h. After the binding step, 25% polyethylene glycol (6000–8000) and 0.5% human g-globulin were added, and the mixture was incubated at room temperature for 15 min. Binding complexes were obtained by centrifuging the mixture at 3500 rpm for 20 min at 4 °C, and radioactivity was evaluated. Results were corrected for “blank” background radiation, defined as the radioactivity precipitated by polyethylene glycol–g-globulin from the same amount of radioactive ligand in binding buffer in the absence of cells.

[7] = 5 mg inhaled aerosol, compared with vehicle treated group
[8] = compound 8a 0.2, 1, 5 mg, budesonide 5 mg, inhaled aerosol

IC50 ([6]; [125I]-C27, read-out: IC50, competitive binding with C27 to CCR4) | IC50 ([6]; [125I]-CCL17, read-out: IC50, competitive binding with CCL17 to CCR4) | IC50 ([6]; [125I]-CCL22, read-out: IC50, competitive binding with CCL22 to CCR4) | SMILES | peribronchial and perivascular inflammation (H&E histology) [1] | airway mucus production (PAS-stained cells) [2] | AHR to methacholine compared with asthmatic mice treated with vehicle [3] | expression of IL-4 in lungs (ELISA) [4] | absolute number of eosinophils in BALF [5, 7] | absolute number of lymphocytes in BALF [5, 7] | number of macrophages in BALF [5, 8] | number of neutrophils in BALF [5, 8]
– | – | – | CCCC1O[C@@H]2C[C@H]3[C@@H]4CCC5=CC(=O)C=C[C@]5(C)[C@H]4[C@@H](O)C[C@]3(C)[C@]2(C(=O)CO)O1 (some centres unmarked) [budesonide, reference compound] | significantly attenuated | no effect | significantly lower | notably decreased | significantly decreased | significantly decreased | neither compound 8a nor budesonide affect | neither compound 8a nor budesonide affect
489 nM | 104 nM | 360 nM | O=C([C@@H]1CSCCN1)N1CCN(c2nc(NCc3ccc(Cl)cc3Cl)c3cccnc3n2)CC1 [compound 6b, reference compound] | – | – | – | – | – | – | – | –
